Experiments:
Lolium multiflorum = assay: Post-emergence treatment test in dry field; assay type: in vivo; conditions: treatment amount 500 g/ha; foliar spray at first to second leaf stage; twenty days after treatment; 0 = no effect, 10 = complete death
Experimental: A plastic cup with a diameter of 8 cm and a depth of 6.5 cm was filled with commercially available soil. Seeds of Lolium multiflorum were sowed in the cup, covered with soil about 0.5 cm thick and then grown in a greenhouse. When the plants were grown in the first to second leaf stage, a diluted liquid formulation containing a prescribed amount of the compound I-a-2 was sprayed onto the whole plants uniformly. The diluted liquid formulation was prepared by dissolving a prescribed amount of the compound I-a-2 in a 2% solution of Tween 20 (polyoxyethylene sorbitan fatty acid ester, MP Biomedicals, Inc.) in dimethylformamide and then diluting the solution with deionized water. After the treatment, the plants were grown in a greenhouse. Twenty days after treatment, the controlling effect of the compound on Lolium multiflorum was visually evaluated. The effect was rated in 11 levels, from 0 to 10 (0 represents “no effect”; 10 represents “complete death”; and a state of the plant therebetween is rated in levels of 1 to 9).
The other compounds of the present invention, and Compound A described in J. Heterocycl. Chem., vol. 42, pp. 427-435 (2005) as a comparative example were similarly tested.

Apera spica-venti = assay: Pre-emergence treatment test in dry field; assay type: in vivo; conditions: treatment amount 500 g/ha; sprayed onto soil surface after sowing; three weeks after treatment; 0 = no effect, 10 = complete death
Experimental: A plastic container (32 cm×22 cm×8 cm in height) was filled with soil sterilized by steam. Seeds of Apera spica-venti were sowed in the container and covered with soil about 0.5 cm thick. Then, a diluted liquid formulation containing a prescribed amount of the compound I-a-1 was sprayed onto the soil surface uniformly. The diluted liquid formulation was prepared by the method similar to that in Test example 1. After the treatment, the plants were grown in a greenhouse. Three weeks after treatment, the controlling effect of the compound on Apera spica-venti was visually evaluated. The effect was rated in 11 levels, from 0 to 10 similarly to Test example 1.
The other compounds of the present invention and Compound A as a comparative example were similarly tested.

Structure (SMILES): Cc1ccccc1-c1c(O)cnn(C)c1=O [Compound A]
- controlling effect on Lolium multiflorum (visually evaluated, rated 0 to 10) (Lolium multiflorum): 1
- controlling effect on Apera spica-venti (visually evaluated, rated 0 to 10) (Apera spica-venti): 1

Reference: patent publication US8470738B2, “Pyridazinone compound and herbicide containing the same” (Sumitomo Chemical Company, Limited, priority 2007, dated 2013)
